A short description of the data set: log P by HPLC on reversed-phase column (C18), EEC Directive 79/831 Annex V.A8. The format is physicochemical. To be noted: C18, 40° C.; for log p H3PO4: 0.1% aqueous phosphoric acid / acetonitrile; for log p HCO2H: aqueous formic acid / acetonitrile. How it is done:
The log P data were determined in accordance with the EEC Directive 79/831 Annex V.A8 by HPLC (High Performance Liquid Chromatography) on a reversed-phase column (C18) using the following methods: […]
Calibration was carried out with the help of unbranched alkan-2-ones (consisting of 3 to 13 or 16 carbon atoms) with known logP values (determination of the logP values via the retention times by means of linear interpolation between two subsequent alkanones).

For the compound `CCN(C)C=Nc1cc(C)c(Oc2ccc(Cl)c(C(C)(C)C)c2)cc1Cl` [compound 903], the “log p H3PO4” value was found to be 2.98, the “log p HCO2H” value is 2.8 and the log p neutral turned out to be 6.54.
The corresponding values for `CCN(C)C=Nc1cc(Cl)c(Oc2nc(C(C)(C)C)ns2)cc1Cl` [compound 825] are 2.34, 2.56 and 5.25.
Turning to `CC(C)N(C)C=Nc1cc(Cl)c(Oc2cccc(C(C)(C)C)c2)cc1Cl` [compound 807], the “log p H3PO4” value is 2.7, the “log p HCO2H” value was 2.82 and the log p neutral is reported as 6.13.
On to `Cc1cc(Oc2cc(C(C)(C)C)nn2C)c(Cl)cc1N=CN1CCCCC1` [compound 600], for which the log p acidic was determined as 1.90 and the log p neutral was found to be 5.34.
Take `Cc1cc(-c2ccc(Cl)cc2)c(F)cc1N=CN(C)C(C)C` [compound 665]: the “log p H3PO4” value is listed as 2.22.
For the compound `CCc1cc(Oc2cc(C)c(N=CN(C)C3CC3)cc2Cl)ccc1Cl` [compound 585], the “log p HCO2H” value worked out at 2.89 and the log p neutral came to 6.34.
Consider `CCN(C)C=Nc1cc(C)c(Oc2ccc(C(C)C)cc2)cc1Cl` [compound 888], for which the “log p H3PO4” value worked out at 2.61, the “log p HCO2H” value amounted to 2.45 and the log p neutral came to 5.58.
The corresponding values for `CCN(C)C=Nc1cc(C)c(Oc2ccc(Cl)c(C(F)(F)F)c2)cc1Cl` [compound 893] are 2.51, 2.44 and 5.49.
In the same order, the values of `CCN(C)C=Nc1cc(C)c(Oc2cccc(C(C)C)c2)cc1Cl` [compound 875] are 2.56, 2.38 and 5.51.
In the same order, the values of `CN(C)C=Nc1cc(Cl)c(Oc2ccc(Cl)c(C(C)(C)C)c2)cc1Cl` [compound 810] are 2.9, 2.94 and 6.13.
`CC(C)N(C)C=Nc1cc(Cl)c(Oc2ccc(Cl)c(C(F)(F)F)c2)cc1Cl` [compound 817]: the “log p H3PO4” value was 2.74, the “log p HCO2H” value amounted to 2.8 and the log p neutral is on record as 5.88.
Regarding `CCN(C)C=Nc1cc(C)c(C=Cc2ccccc2C)cc1C` [compound 270], the “log p HCO2H” value is reported as 2.21.
The compound `CCN(C)C=Nc1cc(OC)c(Oc2ccc(Cl)c(C(F)(F)F)c2)cc1OC` [compound 986] registered a log p acidic of 2.23 and a log p neutral of 4.14.
On to `CC(C)N(C)C=Nc1cc(Cl)c(Oc2nc(C(C)(C)C)ns2)cc1Cl` [compound 826], for which the “log p H3PO4” value is 2.53, the “log p HCO2H” value is 2.78 and the log p neutral is listed as 5.61.
As to `CCN(C)C=Nc1cc(C)c(Oc2ccc(Cl)c(C(C)C)c2)cc1Cl` [compound 898], the “log p H3PO4” value stood at 2.88, the “log p HCO2H” value amounted to 2.78 and the log p neutral was determined as 6.12.
In the same order, the values of `Cc1cc(N=CN2CCCCC2)c(Cl)cc1Oc1ccc(Cl)c(C(C)C)c1` [compound 901] are 3.12, 3 and 6.72.
`CCN(C)C=Nc1cc(F)c(-c2nnc(C3CC3)s2)cc1C` [compound 681]: the log p acidic came to 1.32.
The same measure, in the same setting: the value for `CCN(C)C=Nc1cc(C(F)(F)F)c(Oc2cccc(C(C)(C)C)c2)cc1C` [compound 761] was 2.94; that for `Cc1cc(Oc2cc(Cl)cc(C(F)(F)F)c2)c(Cl)cc1N=CN(C)C` [compound 564] was 2.51.
Consider `CCCN(C)C=Nc1cc(Cl)c(Oc2cc(C(C)(C)C)nn2C)cc1C` [compound 597], for which the log p acidic was 1.90 and the log p neutral is reported as 5.09.
With `Cc1cc(N=CN(C)C(C)C)c(Cl)cc1Oc1ccc(Cl)c(C(C)(C)C)c1` [compound 904], the “log p H3PO4” value is 1.35, the “log p HCO2H” value was 3.01 and the log p neutral is 6.87.
On to `CN(C)C=Nc1cc(Cl)c(Oc2ccc(Cl)c(C(F)(F)F)c2)cc1Cl` [compound 815], for which the “log p H3PO4” value came out at 2.35, the “log p HCO2H” value is 2.45 and the log p neutral is given as 5.15.
On to `CCCN(C)C=Nc1cc(Cl)c(Oc2ccc(Cl)c(C(C)C)c2)cc1C` [compound 571], for which the “log p HCO2H” value was 3.03 and the log p neutral is reported as 6.79.
In the case of `CC(C)(C)c1cc(Oc2cc(Cl)c(N=CN3CCCCC3)cc2Cl)ccc1Cl` [compound 814], the “log p H3PO4” value is reported as 3.45, the “log p HCO2H” value came to 3.62 and the log p neutral is reported as 7.08.
The compound `Cc1cc(Oc2nc(C3(Cl)CC3)ns2)c(Cl)cc1N=CN1CCCCC1` [compound 614] showed a log p acidic of 1.98.
Take `CCCN(C)C=Nc1cc(Cl)c(Oc2ccc(Br)c(C(C)C)c2)cc1C` [compound 590]: the log p acidic is 2.93 and the log p neutral was 7.01.
As for `CCN(C)C=Nc1cc(C)c(CCc2ccc(C(F)(F)F)cc2)cc1C` [compound 250], the “log p HCO2H” value stood at 2.45.
For the compound `CCN(C)C=Nc1cc(F)c(-c2ccc(C(C)(C)C)cc2)cc1F` [compound 846], the log p acidic is reported as 2.79.
Regarding `Cc1cc(Oc2ccc(Cl)c(C(C)C)c2)c(Cl)cc1N=CN(C)C1CC1` [compound 402], the “log p HCO2H” value came to 2.96 and the log p neutral was found to be 6.60.
On to `Cc1cc(Oc2ccc(Cl)c(C(C)C)c2)c(Cl)cc1N=CN(C)C(C)C` [compound 572], for which the “log p HCO2H” value is recorded as 2.87 and the log p neutral came out at 6.70.
In turn, `CCCN(C)C=Nc1cc(Cl)c(Oc2cc(Cl)cc(C(F)(F)F)c2)cc1C` [compound 566] registered a log p acidic of 2.83.
Take `CN(C)C=Nc1cc(C(F)(F)F)c(Oc2ccc(Cl)c(C(F)(F)F)c2)cc1Cl` [compound 947]: the “log p H3PO4” value is recorded as 2.61, the “log p HCO2H” value is on record as 2.78 and the log p neutral is reported as 5.39.
Regarding `FC(F)(F)c1cc(Oc2cc(Cl)c(N=CN3CCCCC3)cc2Cl)ccc1Cl` [compound 819], the “log p H3PO4” value is 2.85, the “log p HCO2H” value came out at 3 and the log p neutral turned out to be 6.12.
In the same order, the values of `CC(C)(C)c1cccc(Oc2cc(Cl)c(N=CN3CCCCC3)cc2Cl)c1` [compound 809] are 2.81, 3.04 and 6.41.
Compound `CCN(C)C=Nc1cc(C)c(Oc2nc(C(C)C)ns2)cc1C` [compound 547] showed a log p acidic of 1.74 and a log p neutral of 4.33.
`CCN(C)C=Nc1cc(Cl)c(Oc2ccc(Cl)c(C(C)C)c2)cc1C` [compound 570]: the “log p HCO2H” value was determined as 2.95 and the log p neutral worked out at 6.37.
In the case of `CCCN(C)C=Nc1cc(Cl)c(Oc2cc(C(C)C)nn2C)cc1C` [compound 603], the log p acidic amounted to 1.78 and the log p neutral was 4.52.
On to `CCN(C)C=Nc1cc(Cl)c(Oc2ncnc(Oc3ccc(Cl)cc3)c2F)cc1C` [compound 620], for which the “log p HCO2H” value is on record as 2.20.
Take `Cc1cc(Oc2nc(C(C)(C)C)ns2)c(Cl)cc1N=CN1CCCCC1` [compound 610]: the log p acidic amounted to 2.21 and the “log p HCO2H” value was 2.21.
Consider `CCN(C)C=Nc1cc(C)c(C=Cc2ccc(OC)cc2)cc1C` [compound 286], for which the “log p HCO2H” value was 2.06.
`CCN(C)C=Nc1cc(C)c(Oc2ccc3ccccc3c2)cc1C` [compound 538] showed a log p acidic of 2.38.
In the case of `CC(C)(C)c1cc(Oc2cc(F)c(N=CN3CCCCC3)cc2F)ccc1Cl` [compound 836], the log p acidic is 2.71 and the log p neutral turned out to be 5.74.
The corresponding values for `Cc1cc(Oc2cc(F)cc(Br)c2)c(C)cc1N=CN(C)C` [compound 1] are 2.17 and 5.11.
On to `Cc1cc(N=CN2CCCCC2)c(Cl)cc1Oc1cccc(C(C)C)c1` [compound 878], for which the “log p H3PO4” value stood at 2.77, the “log p HCO2H” value was determined as 2.62 and the log p neutral is recorded as 6.14.
Turning to `CCN(C)C=Nc1cc(OC)c(Oc2ccc(Cl)c(C(F)(F)F)c2)cc1C` [compound 721], the log p acidic stood at 2.21.
Take `COc1cc(-c2ccc(C)cc2)c(OC)cc1N=CN(C)C` [compound 998]: the log p acidic was 1.76.
For `Cc1cc(Oc2ccc(F)c(C(F)(F)F)c2)c(C)cc1N=CN(C)C` [compound 365], the “log p HCO2H” value was 2.37.
With `CCN(C)C=Nc1cc(C)c(Oc2cc(F)cc(C(F)(F)F)c2)cc1C` [compound 371], the log p acidic came to 2.31 and the log p neutral came to 5.54.
The corresponding values for `CCN(C)C=Nc1cc(C)c(Oc2nc(C(C)(C)C)ns2)cc1Cl` [compound 916] are 2.1 and 4.92.
For `CC(C)N(C)C=Nc1cc(Cl)c(Oc2ccccc2)cc1Cl` [compound 802], the “log p H3PO4” value was 2, the “log p HCO2H” value stood at 2.08 and the log p neutral was 4.84.
Compound `Cc1cc(Oc2cc(Cl)cc(Br)c2)c(C)cc1N=CN(C)C(C)C` [compound 328] displayed a log p acidic of 2.70 and a log p neutral of 6.81.
Consider `CCN(C)C=Nc1cc(C)c(Oc2ccc(C#N)c(C(F)(F)F)c2)cc1C` [compound 226], for which the log p acidic is on record as 1.68.
In the case of `CCN(C)C=Nc1cc(C)c(OCc2sc(Cl)nc2Cl)cc1C` [compound 555], the “log p H3PO4” value was found to be 1.99.
With `CCN(C)C=Nc1cc(Cl)c(Oc2ccc(Cl)c(C(F)(F)F)c2)cc1Cl` [compound 816], the “log p H3PO4” value worked out at 2.6, the “log p HCO2H” value came to 2.65 and the log p neutral stood at 5.56.
In the same order, the values of `Cc1cc(N=CN2CCCCC2)c(Cl)cc1Oc1cccc(C(C)(C)C)c1` [compound 873] are 3, 2.79 and 6.42.

Source of the values: patent US20100113276A1, “USE OF N2-PHENYLAMIDINES AS HERBICIDES” (BAYER CROPSCIENCE AG, priority 2007, published 2010).
